Results from ChEMBL document CHEMBL3853313, “Iminoguanidines as Allosteric Inhibitors of the Iron-Regulated Heme Oxygenase (HemO) of Pseudomonas aeruginosa” (J Med Chem, 2016).
Active and inactive are the calls of the source. The calls are words filed in the database; no cut-off is given here.

Columns and labels:
Pseudomonas aeruginosa [1] = assay: Bactericidal activity against Pseudomonas aeruginosa JSRI-1 clinical isolate after 12 hrs; assay type: functional; details: JSRI-1, 12 h
[2] = Inhibition of Pseudomonas aeruginosa HemO mutant expressed in Escherichia coli BL21(DE3) assessed as decrease in biliverdin-9alpha-dependent IFP1.4 fluorescence after 16 hrs by spectrophotometric method
Pseudomonas aeruginosa [3] = assay: Antibacterial activity against Pseudomonas aeruginosa JSRI-1 clinical isolate after 12 hrs; assay type: functional; details: JSRI-1, 12 h
Pseudomonas aeruginosa [4] = assay: Bactericidal activity against Pseudomonas aeruginosa JSRI-2 clinical isolate after 12 hrs; assay type: functional; details: JSRI-2, 12 h
Pseudomonas aeruginosa [5] = assay: Antibacterial activity against Pseudomonas aeruginosa JSRI-2 clinical isolate after 12 hrs; assay type: functional; details: JSRI-2, 12 h
Heme oxygenase = target: T1, Heme oxygenase (Pseudomonas aeruginosa, UniProt O69002); assay: Binding affinity to Pseudomonas aeruginosa HemO by intrinsic fluorescence quenching method
T1 sequence (O69002 whole entry): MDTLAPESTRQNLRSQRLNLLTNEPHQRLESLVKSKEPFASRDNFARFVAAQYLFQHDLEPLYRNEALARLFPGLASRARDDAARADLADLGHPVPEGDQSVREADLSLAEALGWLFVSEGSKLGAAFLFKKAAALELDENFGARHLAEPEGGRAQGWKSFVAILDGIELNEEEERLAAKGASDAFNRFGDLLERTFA

Pseudomonas aeruginosa [6] = assay: Bactericidal activity against Pseudomonas aeruginosa PAO1 after 12 hrs; assay type: functional; details: PAO1, 12 h
Pseudomonas aeruginosa [7] = assay: Antibacterial activity against Pseudomonas aeruginosa PAO1 after 12 hrs; assay type: functional; details: PAO1, 12 h
Escherichia coli = assay: Toxicity in Escherichia coli BL21(DE3) expressing Pseudomonas aeruginosa HemO mutant after 16 hrs by phase contrast microscopy
[8] = target: T2, Heme oxygenase (Pseudomonas aeruginosa) (UniProt O69002); assay: Binding affinity to Pseudomonas aeruginosa holo-HemO (53 to 62 residues) at 30 mins by HXMS method
T2 sequence (whole entry): T1 sequence (O69002 whole entry)

[9] = target: T2, Heme oxygenase (Pseudomonas aeruginosa); assay: Binding affinity to Pseudomonas aeruginosa HemO by STD NMR method

SMILES | MBC (Pseudomonas aeruginosa [1]) [µg/mL] | EC50 [2] [µM] | MIC50 (Pseudomonas aeruginosa [3]) [µg/mL] | MBC (Pseudomonas aeruginosa [4]) [µg/mL] | MIC50 (Pseudomonas aeruginosa [5]) [µg/mL] | Kd (Heme oxygenase) [µM] | MBC (Pseudomonas aeruginosa [6]) [µg/mL] | MIC50 (Pseudomonas aeruginosa [7]) [µg/mL] | Activity (Escherichia coli) | Activity [8] | Activity [9]
Cl.N=C(N)N/N=C/c1cccc2ccccc12 | 250 | 52.4 | 30.4 | 125 | 36.1 | 12 | 250 | 32.1 |  |  | 
Cl.N=C(N)N/N=C/c1ccccc1F | > 1000 | > 200 | 28.6 | 250 | 72.9 | 11 | 1000 | 131 |  |  | 
Cl.N=C(N)N/N=C/c1cccc(Cl)c1 | 500 | 19.4 | 19.2 | 250 | 33.5 | 8.4 | 250 | 52.4 |  |  | 
Cl.NC(N)=N/N=C/c1cccc(OCc2ccccc2)c1 | 125 | 34.3 | 25.5 | 62.5 | 33.9 |  | 125 | 23.2 |  |  | 
Cl.NC(N)=N/N=C/c1cccc(Br)c1 | 500 | 11.2 | 23 | 125 | 19.4 | 12 | 250 | 51.3 |  |  | 
Cl.N=C(N)N/N=C/c1ccc(Br)cc1 | 250 | 35.6 | 19.7 | 62.5 | 13.4 | 15 | 250 | 52.5 |  |  | 
N=C(N)N/N=C/c1ccccc1Br |  |  |  |  |  | 6.7 |  |  |  |  | 
Cl.NC(N)=N/N=C/c1cc(O)cc(O)c1 |  | > 200 | 338 |  | 564 | 8 |  | 1140 |  |  | 
Cl.NC(N)=N/N=C/c1cccc(F)c1 | 1000 | 45.1 | 70 | 250 | 68.2 | 12 | 1000 | 66.6 |  |  | 
CN(C)c1ccc(/C=N/NC(=N)N)cc1.Cl | 1000 | 123 | 32.5 | 250 | 15.5 | 8.8 | 1000 | 121 | Non-Toxic |  | 
CC(C)c1ccc(/C=N/NC(=N)N)cc1.Cl | 125 | 11.3 | 20.6 | 125 | 81 | 5.7 | 125 | 52.3 |  |  | 
Cl.NC(N)=N/N=C/c1ccc(Cl)c(Cl)c1 | 125 | 20.3 | 24.1 | 125 | 16.4 | 8.4 | 125 | 32.3 |  |  | 
Cl.N=C(N)N/N=C/c1ccc2ccccc2c1 | 250 | 43.1 | 31.7 | 125 | 75.6 |  | 250 | 48.4 |  |  | 
Cl.N=C(N)N/N=C/c1ccc([N+](=O)[O-])cc1 | 1000 | 64.4 | 61.4 | 125 | 47.2 | 6.2 | 1000 | 72.8 |  |  | 
Cl.NC(N)=N/N=C/c1ccc(-c2ccccc2)cc1 | 125 | 21.9 | 34.6 | 62.5 | 38 | 6.7 | 125 | 59.1 |  | Active | 
N=C(N)N/N=C/c1cccc(OCc2ccccc2)c1 |  |  |  |  |  |  |  |  |  |  | Active
Cl.NC(N)=N/N=C/c1cccc(Br)c1O | 1000 | 60.3 | 145 | 250 | 45.6 | 8 | 500 | 80.5 |  |  | 
Cl.N=C(N)N/N=C/c1ccccc1O | > 1000 | 102 | 58.5 | 250 | 79.1 | 9.2 | > 1000 | 123 |  |  | Active
Cl.NC(N)=N/N=C/c1ccc(O)cc1 | > 1000 | > 200 | 443 | > 1000 | 121 | 4.8 | > 1000 | 408 |  |  | 
Cl.N=C(N)N/N=C/c1ccc(F)cc1 | 1000 | 77.5 | 87.4 | 500 | 69.4 | 14 | 1000 | 162 |  |  | 
Cl.NC(N)=N/N=C/c1ccccc1Br | 500 | 35.3 | 62.9 | 250 | 33.4 |  | 500 | 50.1 |  |  | Active
COc1ccc(/C=N/NC(=N)N)cc1.Cl | 1000 | 77.4 | 30.5 | 500 | 38 | 7.8 | 500 | 113 |  |  | 
Cl.N=C(N)N/N=C/c1ccc(Cl)cc1 | 250 | 122 | 10.7 | 62.5 | 41.6 | 7 | 500 | 49 |  |  | 
COc1cccc(/C=N/N=C(N)N)c1.Cl | 1000 |  | 48.6 | 500 | 93.4 |  | > 1000 | 134 |  |  | 
COc1ccccc1/C=N/NC(=N)N.Cl | > 1000 | 72.7 | 38.4 | 500 | 125 |  | 1000 | 99.5 |  |  | Active
Cl.NC(N)=N/N=C/c1cccc(O)c1 |  | > 200 | 391 |  | 617 | 21 |  | 750 |  |  | 
